According to patent US20120165384A1, “INHIBITION OF HISTONE ACETYLTRANSFERASES BY CTK7A AND METHODS THEREOF” (JAWAHARLAL NEHRU CENTRE FOR ADVANCED SCIENTIFIC RESEARCH, priority 2009, published 2012):

What was measured:
PCAF = target: T1, PCAF (Homo sapiens, UniProt Q92831); assay: HAT assay with recombinant PCAF; format: biochemical
T1 construct: Recombinant baculovirus expressing full-length FLAG-tagged CARM1,CBP and PCAF; FLAG; made in house; host or cells: baculovirus-infected Sf21 cells
Protocol: Recombinant baculovirus expressing full-length FLAG-tagged CARM1,CBP and PCAF were purified by immunoaffinity chromatography using M2-agarose beads followed by elution with FLAG peptide. Baculovirus-expressed full-length hexahistidine-tagged p300, and G9a were purified using Ni-NTA affinity chromatography as described previously^30.
(§1) HAT gel fluorography/autoradiography assays were performed as previously reported^30. Kinetic analysis of p300 HAT inhibition was performed as reported earlier^31 in the presence of (0, 30 and 50 μM) CTK7A. The obtained values were plotted as a lineweaver burk plot using Graphpad Prism software. For p300 Autoacetylation assay, reactions of p300 full length (80 ng) were carried out in HAT assay buffer at 30° C. for 10 minutes with or without the protein (NPM1) followed by addition of 1 μl of 4.7 Ci/mmol [^3H] acetyl CoA (NEN-PerkinElmer) and were further incubated for another 10 min in a 30 μl reaction. GAPDH was used as positive control. The radio-labeled acetylated p300 were processed by fluorography followed by autoradiography.

KB cells [1] = assay: FACS cell cycle analysis; format: cell-based; conditions: 24 h, concentration dependent
Protocol: KB cells were grown in the presence or absence of CTK7A for 24 h with the indicated concentration. Cells were grown in presence of CTK7A for 2 h in absence of serum followed by addition of 10% Serum. Briefly cells were harvested by mild trypsinization (0.25%) followed by centrifugation at 2000 rpm for 10 minutes at 4° C. Cells were washed with cold PBS by centrifugation at 2000 rpm for 10 minutes at 4° C. Cells were fixed in cold 70% Ethanol which was added drop wise along with mild vortexing.
Samples were left for 12 hrs, after which Ethanol was removed followed by two washes in cold PBS. RNase (100 μg/ml) treatment was subsequently given at 37° C./30 minutes to ensure only DNA staining. 50 μg/ml Propidium Iodide was added for staining. Cells were sorted and analyzed by flow cytometry for the cell cycle distribution using inbuilt software of BD FACScalibur instrument. Analysis was done in FL2 channel.

full length p300 = target: T2, full length p300 (Homo sapiens, UniProt Q09472); assay: p300 autoacetylation assay in vitro (3H-acetyl CoA, fluorography/autoradiography); format: biochemical; conditions: in vitro, concentration dependent
T2 construct: hexahistidine; made in house; host or cells: baculovirus-infected Sf21 cells
T2 sequence (Q09472 whole entry, species assumed): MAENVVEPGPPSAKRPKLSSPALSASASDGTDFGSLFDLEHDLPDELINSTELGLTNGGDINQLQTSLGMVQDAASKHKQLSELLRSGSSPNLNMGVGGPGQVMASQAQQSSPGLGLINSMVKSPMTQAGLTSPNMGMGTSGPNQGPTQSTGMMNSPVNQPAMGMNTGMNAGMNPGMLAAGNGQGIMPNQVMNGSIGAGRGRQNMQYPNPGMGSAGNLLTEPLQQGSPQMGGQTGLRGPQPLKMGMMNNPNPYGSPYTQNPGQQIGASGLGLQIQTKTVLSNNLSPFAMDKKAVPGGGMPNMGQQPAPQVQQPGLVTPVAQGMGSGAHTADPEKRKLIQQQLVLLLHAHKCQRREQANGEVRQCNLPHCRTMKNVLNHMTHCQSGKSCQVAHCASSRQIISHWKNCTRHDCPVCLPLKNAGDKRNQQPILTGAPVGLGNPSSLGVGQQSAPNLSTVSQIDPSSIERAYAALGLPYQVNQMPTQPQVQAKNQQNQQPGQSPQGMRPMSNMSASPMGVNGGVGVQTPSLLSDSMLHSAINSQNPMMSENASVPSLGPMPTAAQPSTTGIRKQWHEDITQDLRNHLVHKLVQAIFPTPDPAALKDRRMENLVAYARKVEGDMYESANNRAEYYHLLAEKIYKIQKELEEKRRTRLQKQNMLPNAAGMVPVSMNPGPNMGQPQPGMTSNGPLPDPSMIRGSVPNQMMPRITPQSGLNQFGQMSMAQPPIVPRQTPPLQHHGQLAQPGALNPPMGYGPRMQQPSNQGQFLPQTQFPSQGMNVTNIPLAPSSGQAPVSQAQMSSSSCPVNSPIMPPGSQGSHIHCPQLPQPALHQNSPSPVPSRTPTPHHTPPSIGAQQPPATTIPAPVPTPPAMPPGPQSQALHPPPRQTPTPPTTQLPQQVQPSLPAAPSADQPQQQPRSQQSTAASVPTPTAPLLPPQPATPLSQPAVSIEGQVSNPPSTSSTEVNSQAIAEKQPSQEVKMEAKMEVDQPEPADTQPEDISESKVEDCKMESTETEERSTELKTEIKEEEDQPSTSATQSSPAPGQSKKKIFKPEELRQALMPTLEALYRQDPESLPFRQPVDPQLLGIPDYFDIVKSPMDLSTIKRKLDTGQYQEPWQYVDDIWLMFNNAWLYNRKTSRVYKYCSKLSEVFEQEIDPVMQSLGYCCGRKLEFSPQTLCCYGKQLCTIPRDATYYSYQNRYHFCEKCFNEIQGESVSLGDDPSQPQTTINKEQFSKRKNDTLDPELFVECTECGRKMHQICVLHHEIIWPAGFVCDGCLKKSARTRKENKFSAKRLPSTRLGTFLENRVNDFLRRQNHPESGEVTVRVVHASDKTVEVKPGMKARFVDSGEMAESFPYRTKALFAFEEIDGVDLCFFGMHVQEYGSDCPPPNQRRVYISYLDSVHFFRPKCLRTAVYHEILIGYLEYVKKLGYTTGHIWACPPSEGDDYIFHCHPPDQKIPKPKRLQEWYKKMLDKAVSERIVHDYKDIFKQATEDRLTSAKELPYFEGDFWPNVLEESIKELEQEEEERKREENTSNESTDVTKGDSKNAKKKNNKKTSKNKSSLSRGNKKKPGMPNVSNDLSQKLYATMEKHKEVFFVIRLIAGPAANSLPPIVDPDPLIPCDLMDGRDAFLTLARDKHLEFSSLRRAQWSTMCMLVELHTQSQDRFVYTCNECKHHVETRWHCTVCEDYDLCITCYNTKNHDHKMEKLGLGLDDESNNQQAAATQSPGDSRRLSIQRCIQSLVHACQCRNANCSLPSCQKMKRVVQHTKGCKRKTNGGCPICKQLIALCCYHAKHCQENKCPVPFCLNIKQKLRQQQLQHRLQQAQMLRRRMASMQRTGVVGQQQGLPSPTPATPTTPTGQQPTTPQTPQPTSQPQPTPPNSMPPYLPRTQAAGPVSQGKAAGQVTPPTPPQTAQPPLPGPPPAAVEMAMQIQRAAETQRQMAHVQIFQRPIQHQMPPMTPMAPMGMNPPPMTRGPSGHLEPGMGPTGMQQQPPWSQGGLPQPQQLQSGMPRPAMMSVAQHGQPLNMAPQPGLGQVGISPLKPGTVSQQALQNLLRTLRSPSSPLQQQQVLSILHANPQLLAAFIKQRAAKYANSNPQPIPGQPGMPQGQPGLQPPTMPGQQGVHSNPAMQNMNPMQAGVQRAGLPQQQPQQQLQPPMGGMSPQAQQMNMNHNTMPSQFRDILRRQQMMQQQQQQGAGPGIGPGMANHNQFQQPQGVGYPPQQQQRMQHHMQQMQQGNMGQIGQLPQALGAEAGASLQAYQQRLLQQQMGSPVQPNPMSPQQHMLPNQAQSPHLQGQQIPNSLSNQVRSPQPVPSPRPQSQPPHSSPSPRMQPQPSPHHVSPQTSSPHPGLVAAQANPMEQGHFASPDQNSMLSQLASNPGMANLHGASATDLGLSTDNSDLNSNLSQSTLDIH
Protocol: as §1

KB cells [2] = assay: In vitro wound-healing assay; format: cell-based; conditions: 24 h, in the presence of serum
Protocol: Cells in medium containing 10% FBS were seeded in 30 mm dishes. After the cells grew to confluence, wounds of constant diameter were made by sterile plastic pipette tip (200-μl) by scratching the monolayers. Cells were washed with the serum free medium twice and refreshed with medium with or without 10% FBS. Cells were treated with or without the HAT inhibitor for 24 h along with 10% serum. The wound photographs were taken under phase-contrast microscope. Serum positive and negative cells act as positive and negative control for the experiments respectively.

Tip60 = Tip60 (Homo sapiens, UniProt Q92993); assay: HAT assay, Tip60; format: biochemical; conditions: even at 100 μM
Tip60, sequence (Q92993 whole entry, species assumed): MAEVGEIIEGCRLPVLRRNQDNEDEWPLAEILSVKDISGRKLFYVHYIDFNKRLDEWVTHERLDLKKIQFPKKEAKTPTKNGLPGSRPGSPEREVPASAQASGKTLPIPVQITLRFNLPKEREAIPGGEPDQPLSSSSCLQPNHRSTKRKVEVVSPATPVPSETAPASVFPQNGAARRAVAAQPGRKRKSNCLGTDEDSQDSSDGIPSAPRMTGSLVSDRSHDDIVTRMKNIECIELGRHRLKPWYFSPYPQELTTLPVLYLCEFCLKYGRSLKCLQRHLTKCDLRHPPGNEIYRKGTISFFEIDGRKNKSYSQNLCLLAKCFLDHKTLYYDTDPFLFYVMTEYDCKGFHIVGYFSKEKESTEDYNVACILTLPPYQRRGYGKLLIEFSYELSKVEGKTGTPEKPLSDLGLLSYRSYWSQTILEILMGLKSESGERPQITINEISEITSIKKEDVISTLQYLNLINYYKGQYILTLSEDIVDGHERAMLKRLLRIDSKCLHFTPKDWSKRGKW
Protocol: as §1

p300 = p300 (Homo sapiens, UniProt Q09472); assay: p300 autoacetylation enhanced by cocktail of HDAC inhibitors (immunoprecipitation); format: cell-based
p300, sequence (Q09472 whole entry, species assumed): as the sequence (Q09472 whole entry, species assumed) above
Protocol: Whole cell extract were prepared using RIPA buffer as mentioned above. The pre-blocked protein-G sepharose-bound antibody (4 μg) was incubated with 500 μg whole cell lysate overnight at 4° C. After extensive washes, bead-bound protein were analysed by western blotting with indicated antibodies. For HDAC inhibitors treatment, 5 mM sodium butyrate, 5 mM nicotiamide and 100 ng ml^−1 TSA were added 10 h before cells were harvest^36.

HDAC1 = HDAC1 (Homo sapiens, UniProt Q13547); assay: Histone deacetylase assay, HDAC1; format: biochemical; conditions: even at 100 μM
HDAC1, sequence (Q13547 whole entry, species assumed): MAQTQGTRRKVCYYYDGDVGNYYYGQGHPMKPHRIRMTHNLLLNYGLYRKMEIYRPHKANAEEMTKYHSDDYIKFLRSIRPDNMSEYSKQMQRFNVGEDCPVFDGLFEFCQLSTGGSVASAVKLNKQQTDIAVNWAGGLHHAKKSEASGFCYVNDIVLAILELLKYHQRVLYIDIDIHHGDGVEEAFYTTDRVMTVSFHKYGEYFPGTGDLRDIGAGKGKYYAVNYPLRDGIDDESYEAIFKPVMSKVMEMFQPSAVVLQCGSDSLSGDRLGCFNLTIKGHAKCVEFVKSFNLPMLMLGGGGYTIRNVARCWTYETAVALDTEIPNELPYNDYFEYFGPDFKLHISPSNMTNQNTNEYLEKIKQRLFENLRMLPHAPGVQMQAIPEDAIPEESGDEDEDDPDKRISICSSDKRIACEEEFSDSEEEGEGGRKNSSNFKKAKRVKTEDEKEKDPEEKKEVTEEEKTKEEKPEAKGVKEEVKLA
Protocol: The deacetylation assay was performed as per standard protocol^31. For SirT2 deacetylase assay, 50 ng of bacterially expressed, recombinant enzyme was added in the presence or absence of cofactor NAD^+. HMTase was performed as reported earlier^31.

KB cells [3] = assay: Senescence-associated β-gal (SA-β-gal) activity analysis; format: cell-based
Protocol: SA-β-gal activity was analyzed in KB cells as described earlier^47.

KB cell xenografts = assay: Xenograft growth assay; format: in vivo, nude mice (BALB/c); conditions: i.p. 100 mg/kg body weight/twice a day; p<0.05
Protocol: Animal experiments were performed with the approval by authorized ethics Committee. Sixteen nude mice (BALB/c) were included in the experiments (10 male and 6 female mice). Mice were kept in isolators in a pathogen free environment. All nude mice were 3-4 weeks old at the start of the experiments. KB cells, 2×10^6 cells were inoculated in each mice in the right and left flanks, respectively. Mice were then divided in two groups (5 males and 3 females) in each group. After the tumors grown to palpable in size, CTK7A treatment were given intraperitoneally (i.p) with 100 mg/kg body weight/twice a day. Tumors were measured once in three days with a caliper and their volumes were calculated by the formula: 0.52×D1×(D2)^2, where ‘D1’ and ‘D2’ are, respectively, the longest and shortest dimension. The last dose of the compound (CTK7A) was administered four hour before sacrificing it. Tumors were removed and put into liquid nitrogen or were fixed in 10% formalin for 1-2 h to make blocks to be used for IHC. For comparing tumor sizes between treated and control one-way ANOVA was performed using “Sigmaplot Software”. P-value<0.05 was considered as statistically significant.

T1 sequence (Q92831 whole entry, species assumed): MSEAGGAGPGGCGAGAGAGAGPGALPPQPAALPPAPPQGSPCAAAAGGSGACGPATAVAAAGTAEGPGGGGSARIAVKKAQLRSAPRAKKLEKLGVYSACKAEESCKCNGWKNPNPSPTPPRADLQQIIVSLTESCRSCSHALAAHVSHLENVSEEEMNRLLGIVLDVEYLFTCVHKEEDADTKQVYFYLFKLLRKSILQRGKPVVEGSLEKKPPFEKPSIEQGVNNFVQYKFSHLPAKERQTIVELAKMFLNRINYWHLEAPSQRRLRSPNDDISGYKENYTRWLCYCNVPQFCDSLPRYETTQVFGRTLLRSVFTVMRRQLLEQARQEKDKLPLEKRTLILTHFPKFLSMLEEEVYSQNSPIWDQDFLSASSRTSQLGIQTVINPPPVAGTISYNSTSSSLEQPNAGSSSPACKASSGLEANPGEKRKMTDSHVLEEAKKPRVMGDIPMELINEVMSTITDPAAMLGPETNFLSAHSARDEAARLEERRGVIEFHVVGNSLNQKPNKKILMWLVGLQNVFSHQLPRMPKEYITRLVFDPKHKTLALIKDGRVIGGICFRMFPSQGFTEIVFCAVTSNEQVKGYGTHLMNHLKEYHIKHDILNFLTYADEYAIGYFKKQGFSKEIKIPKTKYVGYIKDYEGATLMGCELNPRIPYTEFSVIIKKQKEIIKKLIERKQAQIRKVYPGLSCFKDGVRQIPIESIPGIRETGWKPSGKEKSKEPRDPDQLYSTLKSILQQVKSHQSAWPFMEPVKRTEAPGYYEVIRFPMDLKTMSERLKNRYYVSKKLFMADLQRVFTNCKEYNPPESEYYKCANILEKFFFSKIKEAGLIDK

## COc1cc([O-])cc(C=CC2=NN(c3ccc(C(=O)[O-])cc3)C(C=Cc3cc([O-])cc(OC)c3)C2)c1.[Na+].[Na+].[Na+] (stereo not drawn) [CTK7A, Sodium 4-(3,5-bis(3-methoxy-5-oxidostyryl)-4,5dihydro-1H-pyrazole-1-yl)benzoate]
PCAF
  inhibition of PCAF HAT activity: inhibit
KB cells [1]
  percentage of polyploid cells (>4N): dramatic increase
Full length p300
  inhibition of p300 autoacetylation: inhibit
KB cells [2]
  wound healing activity: reduction
Tip60
  effect on Tip60 activity: unaffected
p300
  inhibition of enhanced autoacetylation of p300: inhibit
HDAC1
  effect on HDAC1 activity: unaffected
KB cells [3]
  expression of senescence associated beta-galactosidase (SA-β-gal): induced
KB cell xenografts
  KB cell tumors smaller than in control untreated mice: 50%
